From patent US7074765B2, “Synthetic peptide analogs of Arg-Pro-Pro-Gly-Phe as selective inhibitors of thrombin and thrombin activation of protease activated receptors 1 and 4” (The Regents of the University of Michigan, priority 2003, dated 2006) come the findings set out here.

In test [1] the target is T1, α-thrombin cleavage of recombinant extracellular fragment of human PAR1 (rPAR1EC) (Homo sapiens, UniProt P00734).
T1 construct: A portion of the extracellular domain of human PAR1 (Ala^26-Ser^99) (rPAR1EC) was expressed in Escherichia coli; with 1 nM of α-thrombin or 0.5 μg/mL thrombocytin (16.7 nM); His10-DDDDK (pET19b) (N); made in house; host or cells: E. coli BL21(DE3), pET19b (rPAR1EC)
Description: Inhibition of α-thrombin-induced cleavage of rPAR1EC. In kind it is biochemical. To be noted: 1 nM α-thrombin, 15 min, 37° C. As to the method: Thrombocytin is a snake venom enzyme that activates platelets by cleaving PAR1 at the thrombin cleavage site (Santos et al., FEBS Letters. 18, 3570–3577 (2000)). […] The ability of MAP4-rOicPGF to block thrombocytin cleavage of rPAR1EC was performed as follows. One μg of rPAR1EC in 0.01 mM Tris-HCL, 0.2 M NaCl, pH 8.0 was incubated at 37° C. for 15 min or 45 min with 1 nM of α-thrombin or 0.5 μg/mL thrombocytin (16.7 nM), respectively, in the absence or presence of 0.025 to 1 mM MAP4-rOicPGF. The reaction mixture was separated on SDS-PAGE and stained with Coomassie Brilliant Blue. The cleaved gel images were scanned using the software Scion Image, ScionCorp, Frederick, Md.

In test [2] the test system is PC3 cells. The test is described as follows: α-thrombin-induced intracellular calcium mobilization in PC3 cells. In kind it is cell-based. The settings on record: 2 nM α-thrombin. As to the method:
(§1) FIG. 13 examines the influence of MAP4-TH146 on thrombin-induced calcium mobilization in two prostate cancer cell lines that functionally express PAR 1. In Panel A, the influence of MAP4-TH146 on 2 nM α-thrombin-induced intracellular calcium mobilization in VCaP cells. Calcium flux is abolished by […]. At 6.25 μM MAP4-TH146, there is full recovery of thrombin-induced calcium flux. In Panel B, the influence of MAP4-TH146 on 2 nM α-thrombin-induced intracellular calcium mobilization in PC3 cells. Calcium flux is abolished by 200 μM MAP4-TH146. At 1.56 μM MAP4-TH146, calcium flux recovers.
In general terms: Calcium assays in cells follow changes in intracellular calcium, usually with a dye or a luminescent sensor.

Test [3] deals with normal human citrated plasma. The test is described as follows: prothrombin time (PT). In kind it is biochemical. The settings on record: normal human plasma; p<0.05. As to the method: (§2) The influence of the various peptide formulations used in the present invention on established coagulation-based assays was determined. The activated partial thromboplastin time (APTT) is performed by mixing 0.05 ml normal human citrated plasma with 0.05 ml activated partial thromboplastin reagent purchased from Organon Teknika, Research Triangle Park, N.C. in the absence or presence of a peptide inhibitor. After incubation for 5 min at 37° C., the mixture is recalcified with 0.05 ml of 30 mM calcium chloride and the time to clot formation is measured in an Amelung KC4A instrument (Sigma Chemical Corp, St. Louis, Mo.) (Hasan et al. Thrombosis and Haemostasis. 82, 1182–1187 (1999)). The prothrombin time (PT) is performed by mixing 0.05 ml normal human citrated plasma with 0.05 ml Simplastin (Organon Teknika, Research Triangle Park, N.C.) followed by incubation for 3 min at 37° C. in the absence or presence of a peptide inhibitor. At the addition of 0.05 ml of 30 mM calcium chloride, the time to clot formation is measured in an KC4A instrument (Sigma Chemical Corp, St. Louis, Mo.) (Hasan et al. Thrombosis and Haemostasis. 82, 1182–1187 (1999)). The thrombin clotting time (TCT) is performed by adding 0.1 ml normal human citrated plasma in the absence or presence of a peptide inhibitor and 0.05 ml of a α-thrombin solution such that the final concentration of the thrombin in the entire mixture was 1 nM. Upon addition of the thrombin, the time to clot formation is measured in an KC4A instrument (Sigma Chemical Corp, St. Louis, Mo.). In FIG. 5, peptide TH146 produces a significant prolongation (p<0.05) of the activated partial thromboplastin time at 15 μM, of the prothrombin time at 60 μM, and the thrombin clotting time at 15 μM. In FIG. 6, peptide MAP4-TH146 produced a significant prolongation (p<0.05) of the activated partial thromboplastin time at 0.195 μM, of the prothrombin time at 3.125 μM, and the thrombin clotting time at 0.39 μM.

Test [4] relates to platelets in platelet-rich plasma. The test is described as follows: γ-thrombin-induced platelet aggregation in platelet-rich plasma. In kind it is cell-based, human. As to the method: Fresh whole blood was collected and mixed with 0.013 M sodium citrate and platelet-rich plasma was prepared according to the method of Meloni et al., J. Biol. Chem. 266, 6786 (1991). Platelet-rich plasma with a normalized platelet count between 2–2.5×10^8 platelets/ml was added to a cuvette of an aggregometer (Chronlog Corp., Havertown, Pa.), standardized using the protocol of Meloni et al., supra. Peptides to be examined were added to the cuvette and the mixture stabilized for a few moments. Once the baseline was stabilized, γ-thrombin (10–70 nM) (Haematologic Technologies, Essex Junction, Vt.) was added to determine the minimal concentration of the agonist necessary to achieve full platelet aggregation. All investigations with peptides were performed using threshold concentrations of γ-thrombin. Aggregation was allowed to proceed for 5 minutes before stopping. When ADP-induced platelet aggregation studies were performed, 1–5 μM ADP (Sigma) was added to the cuvette containing platelet-rich plasma.

Test [5] concerns VCaP cells. The test is described as follows: α-thrombin-induced intracellular calcium mobilization in VCaP cells. In kind it is cell-based. To be noted: 2 nM α-thrombin. As to the method:
as §1

The test system of test [6] is normal human citrated plasma. Description: thrombin clotting time (TCT). To be noted: normal human plasma; p<0.05. In kind it is biochemical. As to the method:
as §2

For the substance “β-Ala-Lys-2Lys-4(D-Arg-Oic-Pro-Gly-Phe) [MAP4-rOicPGF]”, the “effect on α-thrombin cleavage of rPAR1EC” value in test [1] is “inhibits thrombin and thrombocytin cleavage of rPAR1EC”. Further, the “effect on thrombin-induced calcium flux” value in test [2] (1.56 μM peptide) is “recovers”; in test [2] (200 μM peptide), “abolished”; in test [5] (6.25 μM peptide) it was “full recovery”; in test [5] (200 (unit not given) peptide), “abolished”. The “concentration giving significant prolongation of the PT” value in test [3] came out at 3.125 µM. Further, in test [4] (40 nM γ-thrombin), the “concentration that abolished γ-thrombin-induced platelet aggregation” value is given as at least 0.0125 mM. In addition, the “effect on γ-thrombin-induced platelet aggregation” value in test [4] (0.006 mM peptide, 40 nM γ-thrombin) was “returned to pretreatment levels”; in test [4] (0.05 mM peptide, 40 nM γ-thrombin), “completely abolished”. The “Concentration of Peptide [mM] That Gives 100% Inhibition” value in test [4] (minimal concentration that blocked γ-thrombin-induced platelet aggregation in platelet-rich plasma) is listed as 0.019 mM. Further, in test [6], the “concentration giving significant prolongation of the TCT” value worked out at 0.39 µM.
